Measured values: patent publication US20250019385A1, “SPIROCYCLIC ANNULATED 2-AMINO-3-CYANO THIOPHENES AND DERIVATIVES FOR THE TREATMENT OF CANCER” (Boehringer Ingelheim International GmbH, priority 2023, published 2025)
Like-named read-outs stand apart in the source and are kept apart here.

Columns and labels:
Ba/F3 cells KRAS G12C = experiment: Ba/F3 proliferation assay (KRAS G12C); assay type: cell-based; details: AlamarBlue viability
Protocol: (§1) Ba/F3 cells are ordered from DSMZ (ACC300, Lot17) and grown in RPMI-1640 (ATCC 30-2001)+10% FCS+10 ng/mL IL-3 at 37° C. in 5% […] atmosphere. Plasmids containing KRASG12 mutants (i.e. […], G12C, G12V) are obtained from GeneScript. To generate KRASG12-dependent Ba/F3 models, Ba/F3 cells are transduced with retroviruses containing vectors that harbor KRASG12 isoforms. Platinum-E cells (Cell Biolabs) are used for retrovirus packaging. Retrovirus is added to Ba/F3 cells. To ensure infection, 4 μg/mL polybrene is added and cells are spinfected. Infection efficiency is confirmed by measuring GFP-positive cells using a cell analyzer. Cells with an infection efficiency of 10% to 20% are further cultivated and puromycin selection with 1 μg/mL is initiated. As a control, parental Ba/F3 cells are used to show selection status. Selection is considered successful when parental Ba/F3 cells cultures died. To evaluate the transforming potential of KRASG12 mutations, the growth medium is no longer supplemented with IL-3. Ba/F3 cells harboring the empty vector are used as a control. Approximately ten days before conducting the experiments, puromycin is left out.
(§2) For proliferation assays, Ba/F3 cells are seeded into 384-well plates at 1.5×1 (M cells/60 μL in growth media (RPMI-1640+10% FCS). Compounds (10 mM stock in DMSO) are added at logarithmic dose series using the ECHO acoustic liquid handler system (Beckman Coulter), normalizing for added DMSO and including DMSO controls. All compound treatments are performed in technical duplicates. For the TO time point measurement, untreated cells are analyzed at the time of compound addition. Treated cells are incubated for 72 h at 37° C. with 5% CO2 and cell viability is measured in the PerkinElmer Envision Multimode Reader using AlamarBlue™ (ThermoFisher) viability stain. Viability (stated as percent of control) is defined as relative fluorescence units RFU of each well divided by the RFU of cells in DMSO controls. IC50 values are determined from viability measurements by non-linear regression using a four-parameter model.

Ba/F3 cells KRAS G12V = experiment: Ba/F3 proliferation assay (KRAS G12V); assay type: cell-based; details: AlamarBlue viability
Protocol: as §1, §2

NCI-H358 cells = experiment: NCI-H358 CTG proliferation assay (120 h) (NSCLC, G12C); assay type: cell-based
Protocol: (§3) NCI-H358 cells (ATCC No. CRL-5807) are dispensed into black 384-well plates, flat and clear bottom (Greiner, PNr. 781091) at a density of 200 cells per well in 60 μl RPMI-1640 ATCC-Formulation (Gibco #A10491)+10% FCS (fetal calf serum). Cells are incubated overnight at 37° C. in a humidified tissue culture incubator at 5% CO2. Compounds (10 mM stock in DMSO) are added at logarithmic dose series using the ECHO acoustic liquid handler system (Beckman Coulter), normalizing for added DMSO and including DMSO controls. All compound treatments are performed in technical duplicates. For the TO time point measurement, untreated cells are analyzed at the time of compound addition. Plates are incubated for 120 h, and cell viability is measured using CellTiter-Glo luminescent cell viability reagent (Promega product code G7570). Viability (stated as percent of control) is defined as relative luminescence units RLU of each well divided by the RLU of cells in DMSO controls. IC50 values are determined from viability measurements by non-linear regression using a four-parameter model.
(§4) IC50 values of representative compounds according to the invention measured with these assays in the indicated cell lines are presented in Table 46.

MKN1 cells = experiment: MKN1 CTG proliferation assay (120 h) (gastric cancer, wt amplified); assay type: cell-based; details: Homo sapiens, MKN-1
Protocol: as §3, with “MKN1” for “NCI-H358”, “(JCRB0252)” for “(ATCC No. CRL-5807)”, “serum, HyClone, SH30084.03).” for “serum).”
as §4

NCI-H727 cells = experiment: NCI-H727 CTG proliferation assay (120 h) (lung cancer, G12V); assay type: cell-based; details: Homo sapiens
Protocol: as §3, with “NCI-H727” for “NCI-H358”, “CRL-5815)” for “CRL-5807)”, “500” for “200”, “RPMI” for “RPMI-1640”, “(PAN P04-18047)+10%” for “(Gibco #A10491)+10%”, “serum, HyClone, SH30084.03).” for “serum).”
as §4

[1] = Plasma protein binding assay (PPB), equilibrium dialysis; assay type: in vitro ADME; details: 10% FCS in PBS; for fraction unbound: bovine, read-out: PPB 10% FCS (% fu)
Protocol: Binding of test compounds to plasma was determined using equilibrium dialysis (ED) and quantitative mass spectrometry interfaced with liquid chromatography (LC-MS). In brief, ED was performed with dialysis devices consisting of two chambers separated by a semipermeable membrane with a molecular weight cut-off of 5-10 kg/mol. One chamber was filled with 10% FCS in PBS containing 1-10 μmol/L test compound and the other chamber was filled with phosphate-buffer saline (PBS) with or without dextran. The dialysis chamber was incubated for 3-5 hours at 37° C. After incubation, protein was precipitated from aliquots of each chamber and the concentration of test compound in the supernatant of the plasma-containing compartment (cserum) and of the buffer-containing compartment (cbuffer) was determined by LC-MS. The fraction of unbound test compound (not bound to plasma) (f) was calculated according to the following equation: […]

Compound | IC50 (Ba/F3 cells KRAS G12C; Mus musculus, BaF3, 72 h) | IC50 (Ba/F3 cells KRAS G12V; Mus musculus, BaF3, 72 h) | IC50 (NCI-H358 cells; Homo sapiens) | IC50 (MKN1 cells) | IC50 (NCI-H727 cells) | fraction unbound [1] | IC50 (Ba/F3 cells KRAS G12C; 72 h) | IC50 (Ba/F3 cells KRAS G12V; 72 h) | IC50 (NCI-H358 cells) | PPB 10% FCS (% fu) ([1]; fraction unbound)
C[C@H](Oc1nc(-c2noc3c2CCC[C@@]32CCCc3sc(N)c(C#N)c32)nc2c1CCCO[C@]21CCOC1)[C@@H]1CCCN1C [II-10] | 7 nM | 6 nM | 5 nM | 10 nM | 7 nM | 0.28 |  |  |  | 
C[C@H](Oc1nc(-c2onc3c2CCC[C@@]32CCCc3sc(N)c(C#N)c32)nc2c1n(C)c(=O)n2C1COC1)[C@@H]1CCCN1C [I-24] | 59 nM | 26 nM | 93 nM | 355 nM | 35 nM | 0.18 |  |  |  | 
C[C@H](Oc1nc(-c2noc3c2CCC[C@@]32CCCc3sc(N)c(C#N)c32)nc2c1n(C)c(=O)n2[C@@H]1CCOC1)[C@@H]1CCCN1C [II-2] | 4 nM | 2 nM | 4 nM | 4 nM | 3 nM | 0.19 |  |  |  | 
C[C@H](Oc1nc(-c2noc3c2CCC[C@@]32CCCc3sc(N)c(C#N)c32)nc2c1CN(C1COC1)C[C@]21CCOC1)[C@@H]1CC[C@H](C)N1C [II-17] | 3 nM | 1 nM | 5 nM | 20 nM | 2 nM | 0.1 |  |  |  | 
C[C@H](Oc1nc(-c2onc3c2CCC[C@@]32CCCc3sc(N)c(C#N)c32)nc2c1n(C)c(=O)n2[C@@H]1CCOC1)C12CCCN1CCC2 [I-25] | 12 nM | 7 nM | 6 nM | 48 nM | 9 nM | 0.26 |  |  |  | 
CCn1c(=O)n([C@@H]2CCCOC2)c2nc(-c3onc4c3CCC[C@@]43CCCc4sc(N)c(C#N)c43)nc(OCC3(CN4CCCC4)CC3)c21 [I-35] | 177 nM | 104 nM | 232 nM | 978 nM | 159 nM | 0.07 |  |  |  | 
CO[C@@H]1C[C@@H]([C@H](C)Oc2nc(-c3noc4c3CCC[C@@]43CCCc4sc(N)c(C#N)c43)nc3c2COC[C@]32CCOC2)N(C)C1 [II-11] | 1 nM | 1 nM | 3 nM | 6 nM | 1 nM | 0.09 |  |  |  | 
C[C@H](Oc1nc(-c2onc3c2CCC[C@@]32CCCc3sc(N)c(C#N)c32)nc2c1n(C)c(=O)n2[C@@H]1CCOC1)[C@@H]1C[C@H](F)CN1C [I-27] | 26 nM | 13 nM | 39 nM | 126 nM | 21 nM | 0.15 |  |  |  | 
C[C@H](Oc1nc(-c2onc3c2CCC[C@@]32CCCc3sc(N)c(C#N)c32)nc2c1CN(C1COC1)C[C@]21CCOC1)[C@@H]1CCCN1C [I-56] | 4 nM | 2 nM | 6 nM | 15 nM | 4 nM | 0.3 |  |  |  | 
C[C@H](Oc1nc(-c2noc3c2CCC[C@@]32CCCc3sc(N)c(C#N)c32)nc2c1CC[C@]21CNCCO1)[C@@H]1C[C@@H](F)CN1C [II-20] |  |  |  |  |  |  | 181 nM | 96 nM | 59 nM | 10 % fu
C[C@H](Oc1nc(-c2onc3c2CCC[C@@]32CCCc3sc(N)c(C#N)c32)nc2c1n(C)c(=O)n2[C@H]1CO[C@@H](C)C1)[C@@H]1CCCN1C [I-47] | 1 nM |  |  |  |  | 0.13 |  |  |  | 
C[C@H](Oc1nc(-c2noc3c2CCC[C@@]32CCCc3sc(N)c(C#N)c32)nc2c1CN(c1ncccn1)[C@]21CCOC1)[C@@H]1CCCN1C [II-7a] | 10 nM | 10 nM | 18 nM | 41 nM |  | 0.02 |  |  |  | 
C[C@H](Oc1nc(-c2noc3c2CCC[C@@]32CCCc3sc(N)c(C#N)c32)nc2c1CCC21CCOC1)[C@@H]1CCCN1C (stereo partly shown) [II-18] | 31 nM | 13 nM | 43 nM |  |  | 0.01 |  |  |  | 
C[C@H](Oc1nc(-c2noc3c2CCC[C@@]32CCCc3sc(N)c(C#N)c32)nc2c1CN(c1ncccn1)[C@@]21CCOC1)[C@@H]1CCCN1C [II-7b] | 61 nM | 37 nM | 106 nM | 635 nM |  | 0.05 |  |  |  | 
C[C@H](Oc1nc(-c2noc3c2CCC[C@@]32SCCc3sc(N)c(C#N)c32)nc2c1COC[C@]21CCOC1)[C@@H]1CCCN1C [II-16] | 1 nM | 1 nM | 1 nM | 4 nM | 1 nM |  |  |  |  | 
C[C@H](Oc1nc(-c2onc3c2CCC[C@@]32CCCc3sc(N)c(C#N)c32)nc2c1n(C)c(=O)n2[C@H]1CO[C@@H](C)C1)[C@@H]1CC[C@H](C)N1C [I-50] | 3 nM | 1 nM |  |  |  | 0.09 |  |  |  | 
C[C@H](Oc1nc(-c2noc3c2CCC[C@@]32CCCc3sc(N)c(C#N)c32)nc2c1n(C)c(=O)n2[C@H]1CO[C@@H](C)C1)[C@@H]1CCCN1C [II-5] | 1 nM |  | 1 nM | 2 nM |  |  |  |  |  | 
CO[C@@H]1C[C@@H]([C@H](C)Oc2nc(-c3onc4c3CCC[C@@]43CCCc4sc(N)c(C#N)c43)nc3c2n(C)c(=O)n3[C@H]2COC[C@@H](C)C2)N(C)C1 [I-52] | 8 nM | 3 nM |  |  |  | 0.06 |  |  |  | 
CO[C@H]1CCN(C)[C@@H]1[C@H](C)Oc1nc(-c2onc3c2CCC[C@@]32CCCc3sc(N)c(C#N)c32)nc2c1n(C)c(=O)n2[C@H]1COC[C@@H](C)C1 [I-51] | 5 nM | 2 nM |  |  |  | 0.07 |  |  |  | 
